This is an account of results in ChEMBL document CHEMBL1201862, “PubChem BioAssay data set” (2004).

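Exposure lasted 48 hours, with cells grown in 96-well plates and compounds tested at five concentrations. At the GI50, growth is halved.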 Calls of active or inactive are those of the source. Cut-off read from the data, not from the text of the source: active = GI50 up to about 1.1 µM and inactive = higher.

Some test systems named below: T47D; OVCAR-5; U-251; LOX IMVI; MDA-MB-435; MOLT-4; NCI/ADR-RES; IGROV-1; M14; RPMI-8226; HCC 2998; UACC-62; HL-60; SF-295; UO-31; Malme-3M; DU-145; NCI-H23; 786-0.
Test in all cases: inhibition of tumour cell growth, NCI panel, 48 h

In the case of `N=C(N)SCc1ccc(Cl)cc1Cl.O=[N+]([O-])c1c(O)c(Cl)cc(Cl)c1Cl`, the GI50 in the experiment on T47D is 9.82 µM (inactive); in the experiment with OVCAR-5, 16.3 µM (inactive); with U-251, 14.8 µM (inactive); with LOX IMVI, 16.7 µM (inactive); in the experiment with MDA-MB-435, 6.22 µM (inactive); with MOLT-4, 7.4 µM (inactive). Further, the GI50 was 19.5 µM (inactive) in the experiment on NCI/ADR-RES; 17.8 µM (inactive) in the experiment on IGROV-1; 11.4 µM (inactive) in the experiment on M14; 1.81 µM (inactive) in the experiment with RPMI-8226; 8.18 µM (inactive) in the experiment with HCC 2998; 14.4 µM (inactive) in the experiment on UACC-62. The GI50 in the experiment on HL-60 was 6.04 µM (inactive); in the experiment with SF-295 it was 13.5 µM (inactive); in the experiment with UO-31, 9.06 µM (inactive); in the experiment with Malme-3M, 15.6 µM (inactive); with DU-145, 13.5 µM (inactive); with NCI-H23, 13.4 µM (inactive). In addition, the GI50 in the experiment with 786-0 was 11.7 µM (inactive).

On to `CCOC(=O)/C=C(/C(=O)OCC)n1cc(C)c(=O)n(Cc2cn(COCCOC(C)=O)nn2)c1=O`, for which the GI50 is 25.8 µM (inactive) in the experiment with T47D; 27.8 µM (inactive) in the experiment on OVCAR-5; 26.3 µM (inactive) in the experiment on U-251; 22.2 µM (inactive) in the experiment with LOX IMVI; 18.3 µM (inactive) in the experiment on MDA-MB-435; 15 µM (inactive) with MOLT-4. In addition, the GI50 in the experiment with NCI/ADR-RES was 21 µM (inactive); with IGROV-1, 17.2 µM (inactive); with M14, 46 µM (inactive); with RPMI-8226, 17.9 µM (inactive); in the experiment on HCC 2998, 17.3 µM (inactive); with UACC-62, 17.1 µM (inactive). The GI50 in the experiment on HL-60 is 8.57 µM (inactive); with SF-295, > 100 µM (inactive); in the experiment on UO-31 it was 1.07 µM (active); with Malme-3M, 11 µM (inactive); in the experiment on DU-145, 36.3 µM (inactive); in the experiment with NCI-H23, 6.18 µM (inactive). For the same molecule, the GI50 in the experiment with 786-0 was 20 µM (inactive).

As to `CCCCN(CCCC)CCC(O)c1cc2c(Cl)cc(Cl)cc2c2cc(C(F)(F)F)ccc12` (stereo not given), the GI50 in the experiment with T47D was 12.8 µM (inactive); in the experiment with OVCAR-5, 12.9 µM (inactive); with U-251, 14.4 µM (inactive); in the experiment with LOX IMVI, 6.52 µM (inactive); with MDA-MB-435, 12.6 µM (inactive); with MOLT-4 it was 8.57 µM (inactive). Moreover, the GI50 is 12.1 µM (inactive) in the experiment on NCI/ADR-RES; 12.7 µM (inactive) in the experiment on IGROV-1; 8.93 µM (inactive) in the experiment on M14; 8.36 µM (inactive) with RPMI-8226; 11.7 µM (inactive) in the experiment with HCC 2998; 15 µM (inactive) in the experiment on UACC-62. Moreover, the GI50 was 5.9 µM (inactive) in the experiment with HL-60; 12.4 µM (inactive) in the experiment on SF-295; 4.2 µM (inactive) with UO-31; 16.4 µM (inactive) in the experiment with Malme-3M; 10.3 µM (inactive) in the experiment with DU-145; 12.4 µM (inactive) in the experiment with NCI-H23. The GI50 in the experiment with 786-0 was 12.9 µM (inactive).

With `COCn1c(C)c(C)c2c(=O)oc(C)nc21`, the GI50 with T47D, in the experiment on OVCAR-5, in the experiment with U-251, with LOX IMVI, with MDA-MB-435 and in the experiment with MOLT-4 was > 100 µM (inactive) in each case. Besides, the GI50 with NCI/ADR-RES, with IGROV-1, in the experiment with M14, in the experiment on RPMI-8226, with HCC 2998 and in the experiment with UACC-62 was > 100 µM (inactive) each time. The GI50 in the experiment on HL-60 is > 100 µM (inactive); in the experiment with SF-295, > 100 µM (inactive); in the experiment with UO-31 it was 89.1 µM (inactive); with Malme-3M, > 100 µM (inactive); in the experiment with DU-145, > 100 µM (inactive); in the experiment on NCI-H23, > 100 µM (inactive). Also, the GI50 in the experiment with 786-0 is > 100 µM (inactive).

On to `COc1ccc(OC)c2c1C(=O)C(O)=C(Cl)C2=O`, for which the GI50 with T47D, in the experiment on OVCAR-5, in the experiment on U-251, in the experiment on LOX IMVI, with MDA-MB-435 and with MOLT-4 was > 100 µM (inactive) throughout. Moreover, the GI50 in the experiment with NCI/ADR-RES, in the experiment on IGROV-1, in the experiment with M14, in the experiment with RPMI-8226, in the experiment on HCC 2998 and with UACC-62 was > 100 µM (inactive) each time. Moreover, the GI50 in the experiment with HL-60, with SF-295, in the experiment with UO-31, with Malme-3M, in the experiment on DU-145 and in the experiment on NCI-H23 was > 100 µM (inactive) in each case. Besides, the GI50 in the experiment on 786-0 is > 100 µM (inactive).

On to `COc1ccc(N(C)S(=O)(=O)c2ccccc2)cc1`, for which the GI50 in the experiment with T47D was 53.1 µM (inactive); in the experiment with OVCAR-5, > 100 µM (inactive); with U-251 it was > 100 µM (inactive); with LOX IMVI, > 100 µM (inactive); in the experiment with MDA-MB-435 it was 59.2 µM (inactive); with MOLT-4 it was 29.4 µM (inactive). Also, the GI50 in the experiment with NCI/ADR-RES was > 100 µM (inactive); with IGROV-1, > 100 µM (inactive); in the experiment with M14, > 100 µM (inactive); in the experiment on RPMI-8226, 86.9 µM (inactive); with HCC 2998 it was 56 µM (inactive); in the experiment with UACC-62 it was 75 µM (inactive). The GI50 was > 100 µM (inactive) with HL-60; > 100 µM (inactive) with SF-295; > 100 µM (inactive) in the experiment on UO-31; > 100 µM (inactive) in the experiment with Malme-3M; > 100 µM (inactive) in the experiment with DU-145; 67.1 µM (inactive) in the experiment on NCI-H23. Besides, in the experiment on 786-0, the GI50 is > 100 µM (inactive).

For the molecule `N#Cc1c(O)c(/C=N/c2ccc(Cl)cc2)c(=O)n2c1[nH]c1ccccc12`, the GI50 with T47D, in the experiment with OVCAR-5, with U-251, in the experiment on LOX IMVI, in the experiment on MDA-MB-435 and with MOLT-4 was > 100 µM (inactive) each time. Also, the GI50 with NCI/ADR-RES, in the experiment with IGROV-1, in the experiment on M14, with RPMI-8226, in the experiment on HCC 2998 and in the experiment on UACC-62 was > 100 µM (inactive) each time. The GI50 in the experiment on HL-60, with SF-295, in the experiment on UO-31, in the experiment on Malme-3M, in the experiment with DU-145 and in the experiment on NCI-H23 was > 100 µM (inactive) in each case. Also, in the experiment on 786-0, the GI50 was > 100 µM (inactive).

Take `Cc1cc(=O)[nH]c2c1C(=O)c1c(C)cc(=O)n(C)c1C2=O`: the GI50 in the experiment on T47D is 0.303 µM (active); in the experiment on OVCAR-5 it was 0.166 µM (active); in the experiment on U-251, 0.11 µM (active); with LOX IMVI, 0.122 µM (active); in the experiment on MDA-MB-435, 0.0142 µM (active); in the experiment on MOLT-4 it was 0.212 µM (active). The GI50 is 0.0889 µM (active) in the experiment on NCI/ADR-RES; 0.202 µM (active) with IGROV-1; 0.0147 µM (active) in the experiment with M14; 0.33 µM (active) in the experiment on RPMI-8226; 0.0261 µM (active) with HCC 2998; 0.0171 µM (active) in the experiment with UACC-62. Further, the GI50 was 0.153 µM (active) with HL-60; 0.167 µM (active) in the experiment with SF-295; 0.167 µM (active) in the experiment with UO-31; 0.00177 µM (active) in the experiment on Malme-3M; 0.0238 µM (active) in the experiment with DU-145; 0.0142 µM (active) with NCI-H23. Moreover, the GI50 with 786-0 is 0.0545 µM (active).

On to `O=C(NC(N1CCN(c2cc3c(cc2F)c(=O)c(C(=O)O)cn3C2CC2)CC1)(C(F)(F)F)C(F)(F)F)c1ccccc1`, for which the GI50 is 35.6 µM (inactive) with T47D; 26.7 µM (inactive) with OVCAR-5; 37.3 µM (inactive) in the experiment with U-251; 33.9 µM (inactive) in the experiment on LOX IMVI; 34.1 µM (inactive) with MDA-MB-435; 26.1 µM (inactive) in the experiment with MOLT-4. For the same molecule, the GI50 was 46 µM (inactive) in the experiment with NCI/ADR-RES; 36.3 µM (inactive) with IGROV-1; 47.4 µM (inactive) in the experiment with M14; 27.7 µM (inactive) in the experiment with RPMI-8226; 23.8 µM (inactive) in the experiment with HCC 2998; 33.3 µM (inactive) in the experiment on UACC-62. Also, the GI50 in the experiment on HL-60 was 25.4 µM (inactive); in the experiment on SF-295, 40.6 µM (inactive); in the experiment on UO-31, 30.5 µM (inactive); with Malme-3M, 36.6 µM (inactive); with DU-145 it was 62.1 µM (inactive); with NCI-H23, 25.9 µM (inactive). In addition, the GI50 with 786-0 was 45.2 µM (inactive).

`Nc1ncnc2c1ccn2COC(CO)CO`: the GI50 in the experiment on T47D was > 100 µM (inactive); with OVCAR-5 it was > 100 µM (inactive); in the experiment with U-251 it was > 100 µM (inactive); in the experiment with LOX IMVI, > 100 µM (inactive); in the experiment on MDA-MB-435, 62.8 µM (inactive); with MOLT-4, 51.9 µM (inactive). The GI50 in the experiment with NCI/ADR-RES is > 100 µM (inactive); in the experiment on IGROV-1 it was > 100 µM (inactive); in the experiment on M14 it was 79.6 µM (inactive); in the experiment with RPMI-8226, 97.1 µM (inactive); in the experiment with HCC 2998, > 100 µM (inactive); in the experiment on UACC-62, 37.4 µM (inactive). Besides, the GI50 in the experiment with HL-60 was 90.6 µM (inactive); in the experiment with SF-295, > 100 µM (inactive); in the experiment with UO-31 it was > 100 µM (inactive); in the experiment with Malme-3M it was > 100 µM (inactive); in the experiment on DU-145 it was > 100 µM (inactive); with NCI-H23 it was > 100 µM (inactive). In addition, the GI50 with 786-0 was > 100 µM (inactive).
